{
  "source": "patent US7741281B2",
  "about": "“Hepatitis C virus inhibitors” (Bristol-Myers Squibb Company, priority 2005, dated 2010)",
  "molecular_target": "T1, HCV NS3/4A protease complex, J4L6S strain (Hepatitis C virus genotype 1b, UniProt O92972, C1454S/C1711G)",
  "T1 construct": "recombinant HCV NS3/4A protease complex (amino acids 1027 to 1711) for these strains; His tag (inferred from pET21b vector and Ni-NTA purification); made in house; host or cells: Escherichia coli BL21 (DE3), pET21b",
  "T1 sequence (O92972 1027-1711 C1454S/C1711G, one chain of several)": "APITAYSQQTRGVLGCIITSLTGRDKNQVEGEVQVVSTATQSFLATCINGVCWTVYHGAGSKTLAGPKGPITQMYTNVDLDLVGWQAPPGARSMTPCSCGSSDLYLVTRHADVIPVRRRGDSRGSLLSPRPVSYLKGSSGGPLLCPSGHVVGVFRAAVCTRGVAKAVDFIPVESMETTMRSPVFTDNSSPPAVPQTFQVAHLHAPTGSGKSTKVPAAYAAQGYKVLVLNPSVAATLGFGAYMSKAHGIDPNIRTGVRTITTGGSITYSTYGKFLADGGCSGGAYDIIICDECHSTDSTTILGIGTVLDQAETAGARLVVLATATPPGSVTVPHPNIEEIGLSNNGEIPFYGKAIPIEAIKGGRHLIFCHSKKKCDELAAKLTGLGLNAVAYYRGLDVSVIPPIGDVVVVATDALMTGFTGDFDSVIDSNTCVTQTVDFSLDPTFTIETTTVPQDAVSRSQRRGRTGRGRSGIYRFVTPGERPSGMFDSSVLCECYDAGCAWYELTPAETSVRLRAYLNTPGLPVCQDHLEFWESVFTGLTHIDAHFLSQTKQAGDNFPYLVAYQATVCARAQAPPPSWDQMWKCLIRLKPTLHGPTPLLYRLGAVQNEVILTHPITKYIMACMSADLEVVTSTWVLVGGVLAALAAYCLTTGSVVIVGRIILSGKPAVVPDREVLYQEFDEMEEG",
  "assay": "FRET peptide assay to monitor HCV NS3/4A proteolytic activity (J4L6S strain)",
  "assay_type": "biochemical, HCV genotype 1b",
  "description": "HCV NS3 protease complexes, derived from the BMS strain, H77 strain or J4L6S strain, were generated, as described below. These purified recombinant proteins were generated for use in a homogeneous assay (see below) to provide an indication of how effective compounds of the present disclosure would be in inhibiting HCV NS3 proteolytic activity.\nSerum from an HCV-infected patient was obtained from Dr. T. Wright, San Francisco Hospital. An engineered full-length cDNA (compliment deoxyribonucleic acid) template of the HCV genome (BMS strain) was constructed from DNA fragments obtained by reverse transcription-PCR (RT-PCR) of serum RNA (ribonucleic acid) and using primers selected on the basis of homology between other genotype 1a strains. From the determination of the entire genome sequence, a genotype 1a was assigned to the HCV isolate according to the classification of Simmonds et al. (See P Simmonds, K A Rose, S Graham, S W Chan, F McOmish, B C Dow, E A Follett, P L Yap and H Marsden, J. Clin. Microbiol., 31(6), 1493-1503 (1993)). […]",
  "note": "pIC50: −log10 of the molar value.",
  "data": [
    {"smiles": "COc1c(O[C@@H]2C[C@H]3C(=O)N[C@]4(C(=O)NS(=O)(=O)C5CC5)C[C@H]4/C=C\\CCCCC[C@H](NC(=O)OC(C)(C)C)C(=O)N3C2)ccc2c(Cl)nccc12", "note": "[Compound 3]", "values": [
      {"measurement": "pIC50", "value": 9.33}
    ]}
  ]
}
